Measured values: patent US10252260B2, “System and method for deforming particles” (CytoVale Inc., priority 2016, dated 2019)

Assays:
[1] = system: white blood cells; assay: Deformation of white blood cells in viscous co-flow, bullet metric as a function of treatment time; type: cell-based; conditions: white blood cells treated with 5 nM; compared to untreated controls; FIG. 10
Description: FIG. 10 illustrates the bullet metric as a function of treatment time for white blood cells treated with 5 nM phorbol 12-myristate as compared with a untreated control in embodiments of a system and method for deforming particles;
(§1) The system 100 and/or method 200 function to enable the deformation of individual particles in a high-throughput and consistent manner, with the ability to simultaneously generate and analyze multiple data types characterizing the single particles. In one embodiment, the system 100 and/or method 200 further function to enable the generation of data that directly correlates mechanical properties of the particles with one or more fluorescence characterizations of the particles (e.g., fluorescent antibody stains, live/dead cell stains, nuclear stains, stains for apoptosis, fluorescent proteins, etc.) at the single-particle level. This can allow the generation of a direct quantitative comparison between biomolecular properties and mechanical properties. […]
(§2) Regarding Block S240, preferably, deformation metrics can be measured to characterize the deformation of the particles as the particle travels along the deformation region. […]

[2] = system: red blood cells; assay: Deformation of red blood cells in viscous co-flow (primaquine biomodel), diameter versus bullet metric; type: cell-based; conditions: red blood cells of different stiffness induced by different concentrations of primaquine; FIGS. 11A-11C
Excerpt: FIGS. 11A-11C illustrate bullet metric as a function of size for red blood cells treated with different concentrations of primaquine in variations of a system and method for deforming particles; and
as §1, §2

SMILES | change in a cell morphological metric (bullet metric) over treatment time [1] | cell morphological metric (e.g. bullet metric) [2]
CCCCCCCCCCCCCC(=O)O[C@@H]1[C@@H](C)[C@@]2(O)[C@@H](C=C(CO)C[C@]3(O)C(=O)C(C)=C[C@@H]23)[C@@H]2C(C)(C)[C@]12OC(C)=O | increased change in a cell morphological metric | 
COc1cc(NC(C)CCCN)c2ncccc2c1 (centres unmarked) [primaquine] |  | decrease in a cell morphological metric
